# Reference: ChEMBL document CHEMBL4007391, “Tackling Fungal Resistance by Biofilm Inhibitors” (J Med Chem, 2017)
# Test system: Candida albicans
# Assay: Disruption of biofilm of Candida albicans DAY185 assessed as death of biofilm hyphae after 24 hrs by XTT assay
# Assay type: functional
structure (smiles),measurement,value
C=C(C)[C@H](CC=C(C)C)C[C@]12C[C@H](CC=C(C)C)C(C)(C)[C@](CC=C(C)C)(C(=O)C(C(=O)c3ccc(O)c(O)c3)=C1O)C2=O,EC50,30 to 50 µM
